# From patent US20030203373A1 (priority 2002, published 2003)
# Where “and” joins values, the source holds several entries; their conditions need not be identical. Identical values can stand only once. Ends that are not written are not given here.
# Target: T1, ACE from pig kidney (Sus scrofa, UniProt F1RRW5)
# T1 construct: 1 mU ACE from pig kidney (EC 3.4.15.1 (Sigma)); purchased Sigma; host or cells: pig kidney (tissue-derived enzyme)
# T1 sequence (F1RRW5 34-1309): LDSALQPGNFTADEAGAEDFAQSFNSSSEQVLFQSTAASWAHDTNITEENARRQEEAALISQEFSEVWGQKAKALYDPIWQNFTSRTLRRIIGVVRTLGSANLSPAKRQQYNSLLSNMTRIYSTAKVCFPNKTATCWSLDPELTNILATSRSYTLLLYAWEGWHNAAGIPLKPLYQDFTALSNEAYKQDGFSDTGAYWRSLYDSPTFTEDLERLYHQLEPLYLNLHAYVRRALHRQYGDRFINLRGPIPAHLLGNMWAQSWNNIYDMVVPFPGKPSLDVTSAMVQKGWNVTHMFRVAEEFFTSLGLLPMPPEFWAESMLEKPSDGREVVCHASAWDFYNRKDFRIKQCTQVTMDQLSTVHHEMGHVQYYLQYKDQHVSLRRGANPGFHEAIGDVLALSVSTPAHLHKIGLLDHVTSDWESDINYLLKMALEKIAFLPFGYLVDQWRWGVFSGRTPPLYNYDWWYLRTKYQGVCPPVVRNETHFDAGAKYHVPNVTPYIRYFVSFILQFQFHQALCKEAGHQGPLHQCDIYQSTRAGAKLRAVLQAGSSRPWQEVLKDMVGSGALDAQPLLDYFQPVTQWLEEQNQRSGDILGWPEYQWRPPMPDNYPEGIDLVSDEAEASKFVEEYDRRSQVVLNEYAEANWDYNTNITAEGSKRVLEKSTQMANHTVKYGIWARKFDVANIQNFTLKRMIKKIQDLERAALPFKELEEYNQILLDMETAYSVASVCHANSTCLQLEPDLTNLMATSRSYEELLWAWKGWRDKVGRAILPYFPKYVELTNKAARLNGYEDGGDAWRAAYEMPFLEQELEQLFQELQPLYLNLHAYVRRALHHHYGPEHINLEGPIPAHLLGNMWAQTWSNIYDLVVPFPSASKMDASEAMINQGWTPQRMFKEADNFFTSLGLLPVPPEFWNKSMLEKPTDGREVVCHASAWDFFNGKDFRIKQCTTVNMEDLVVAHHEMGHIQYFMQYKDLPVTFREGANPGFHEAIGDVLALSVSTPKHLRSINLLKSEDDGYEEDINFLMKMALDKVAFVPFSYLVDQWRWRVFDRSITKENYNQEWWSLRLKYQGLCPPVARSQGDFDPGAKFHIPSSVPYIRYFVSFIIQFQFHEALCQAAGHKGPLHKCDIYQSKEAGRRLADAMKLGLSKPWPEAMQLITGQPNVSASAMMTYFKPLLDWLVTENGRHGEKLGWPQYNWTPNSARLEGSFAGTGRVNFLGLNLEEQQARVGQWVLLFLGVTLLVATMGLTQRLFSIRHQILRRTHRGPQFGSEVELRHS
# Test: biochemical
# Format: biochemical
# Settings: for IC50: ACE from pig kidney, determined graphically, read-out: IC50-value (ACE inhibition)
# Text: These peptides were investigated for their inhibitory effect using an in vitro-ACE-inhibitor-assay with an angiotensin-converting-enzyme derived from pig kidney. Hippuryl-histidyl-leucin was used as a substrate. […] A concrete experimental description is given below.
# The principle of the ACE-inhibition-assay was established by Chejung, H. S., Cushman, D. W.: “Inhibition of homogenous angiotensin converting enzyme of rabbit lung by synthetic venom peptides of Bothrops jararaca.” in Biochimica et Biophysica Acta 293, 451-563 (1973).
# The assay was performed in 96 well HTRF-plates (Packard). The concentrations used for each well were:
# 1 mU ACE from pig kidney (EC 3.4.15.1 (Sigma)) in 30 μl of assay buffer (25 mM HEPES; 0,3 M NaCl, pH 8,2) and 20 μl inhibitor dissolved in assay buffer (0,35-200 μM). The reaction was started by adding 50 μl of 2 mM hippuryl-histidyl-leucin (Sigma) in assay buffer. The reaction was performed at room temperature (22° C.) for 30 minutes and terminated by adding 50 μl of 2 M NaOH. Afterwards 50 μl of 0,5% ortho-phtalaldehyd (Sigma) in methanol were added, 5 minutes later followed by 50 μl of 2,5 M HCl-solution to stabilize the developed fluorescence product.
# The results were used to calculate the % inhibition. The IC50-values were determined graphically from a curve showing the dose-reaction ratio.
# In order to minimize errors due to time-dependent differences, all pipetting steps were performed in a precise time schedule.
# [1] = inhibitor 0.39 μM, replicates A-D
# [2] = inhibitor 0.39 μM, replicates A-D, 0.39 µM
# [3] = inhibitor 0.78125 μM, replicates A-D
# [4] = inhibitor 0.78125 μM, replicates A-D, 0.78125 µM
# [5] = inhibitor 1.5625 μM, replicates A-D
# [6] = inhibitor 1.5625 μM, replicates A-D, 1.5625 µM
# [7] = inhibitor 3.125 μM, replicates A-D
# [8] = inhibitor 3.125 μM, replicates A-D, 3.125 µM
# [9] = inhibitor 6.25 μM, replicates A-D
# [10] = inhibitor 6.25 μM, replicates A-D, 6.25 µM
# [11] = inhibitor 12.5 μM, replicates A-D
# [12] = inhibitor 12.5 μM, replicates A-D, 12.5 µM
# [13] = inhibitor 25 μM, replicates A-D
# [14] = inhibitor 25 μM, replicates A-D, 25 µM
# [15] = inhibitor 50 μM, replicates A-D
# [16] = inhibitor 50 μM, replicates A-D, 50 µM
# [17] = inhibitor 100 μM, replicates A-D
# [18] = inhibitor 100 μM, replicates A-D, 100 µM
# [19] = inhibitor 200 μM, replicates A-D
# [20] = inhibitor 200 μM, replicates A-D, 200 µM
Sequence,IC50,fluorescence reading (ACE Inhibitor Assay) [1],% inhibition (ACE Inhibitor Assay) [2],fluorescence reading (ACE Inhibitor Assay) [3],% inhibition (ACE Inhibitor Assay) [4],fluorescence reading (ACE Inhibitor Assay) [5],% inhibition (ACE Inhibitor Assay) [6],fluorescence reading (ACE Inhibitor Assay) [7],% inhibition (ACE Inhibitor Assay) [8],fluorescence reading (ACE Inhibitor Assay) [9],inhibition at 6.25 µM [9],% inhibition (ACE Inhibitor Assay) [10],fluorescence reading (ACE Inhibitor Assay) [11],inhibition at 12.5 µM [11],% inhibition (ACE Inhibitor Assay) [12],fluorescence reading (ACE Inhibitor Assay) [13],inhibition at 25 µM [13],% inhibition (ACE Inhibitor Assay) [14],fluorescence reading (ACE Inhibitor Assay) [15],inhibition at 50 µM [15],other results
AALSPLPEVPP [Peptide S494],9 µM,704319 and 727603 and 762908 and 659968,2.56% and −0.67% and −5.59% and 8.74%,643151 and 655606 and 667363 and 633619,9.35% and 7.71% and 12.41%,602329 and 645065 and 664903 and 606137,16.77% and 10.82% and 8.05% and 16.23%,563277 and 547546 and 579178 and 556345,24.4% and 20% and 23.17%,420434 and 435365 and 427540 and 433344,42.1%,40.02% and 41.11% and 40.3%,312590 and 306320 and 319249 and 308116,57.1%,57.99% and 56.19% and 57.74%,193365 and 203903 and 204201 and 188693,73.7%,72.26% and 72.21% and 74.38%,119135 and 120732 and 124777 and 108988,84.1%,inhibition at 0.78125 µM [3]: 11.1%; inhibition at 3.125 µM [7]: 22.2%; % inhibition (ACE Inhibitor Assay) [16]: 83.84% and 83.28% and 85.48%; fluorescence reading (ACE Inhibitor Assay) [17]: 59914 and 62551 and 64312 and 57543; inhibition at 100 µM [17]: 92.3%; % inhibition (ACE Inhibitor Assay) [18]: 91.94% and 91.7% and 92.64%; fluorescence reading (ACE Inhibitor Assay) [19]: 34342 and 34053 and 34364 and 34738; inhibition at 200 µM [19]: 95.9%; % inhibition (ACE Inhibitor Assay) [20]: 95.91% and 95.82%
AGAALSPLPEVPP [Peptide S543],25 µM,959059 and 985299 and 971597 and 996656,5.2% and 6.53% and 4.1%,946496 and 913444 and 925926 and 981909,8.95% and 12.15% and 10.945% and 5.53%,923507 and 888699 and 915925 and 980940,11.18% and 14.54% and 11.9% and 5.62%,868636 and 880388 and 856283 and 938801,15.35% and 17.68% and 9.7%,816251 and 788199 and 773151 and 833135,21.6%,24.26% and 25.72% and 19.92%,683603 and 714973 and 720213 and 700323,34.4%,31.35% and 30.84% and 32.76%,519515 and 531562 and 515233 and 534895,50.2%,49.09% and 50.66% and 48.76%,362416 and 357767 and 358975 and 367216,65.5%,inhibition at 0.39 µM [1]: 7.74%; inhibition at 3.125 µM [7]: 16.5%; % inhibition (ACE Inhibitor Assay) [16]: 65.9% and 65.78% and 64.98%; fluorescence reading (ACE Inhibitor Assay) [17]: 211437 and 206169 and 209393 and 219372; inhibition at 100 µM [17]: 80%; % inhibition (ACE Inhibitor Assay) [18]: 80.56% and 80.25% and 79.28%; fluorescence reading (ACE Inhibitor Assay) [19]: 107628 and 110019 and 108841 and 111945; inhibition at 200 µM [19]: 90.1%; % inhibition (ACE Inhibitor Assay) [20]: 89.95% and 89.97% and 89.67%
EAGAALSPLPEVPP [Peptide S542],38 µM,930945 and 967806 and 1003456 and 906307,4.59% and 0.79% and −2.87% and 7.13%,910838 and 902555 and 939597 and 880680,6.66% and 7.52% and 3.7% and 9.77%,794214 and 874684 and 882788 and 794177,10.39% and 9.55%,821478 and 820849 and 868901 and 796263,15.93% and 10.98% and 18.47%,801078 and 799975 and 802324 and 795040,18%,18.08% and 17.84% and 18.59%,719799 and 744223 and 765229 and 709216,26.3%,23.83% and 21.66% and 27.43%,609106 and 591988 and 618193 and 569641,37.8%,39.51% and 36.81% and 41.81%,424530 and 419325 and 440093 and 406539,56.8%,inhibition at 1.5625 µM [5]: 18.7%; inhibition at 3.125 µM [7]: 15.9%; % inhibition (ACE Inhibitor Assay) [16]: 57.3% and 55.16% and 58.61%; fluorescence reading (ACE Inhibitor Assay) [17]: 273140 and 278465 and 286263 and 274375; inhibition at 100 µM [17]: 72.3%; % inhibition (ACE Inhibitor Assay) [18]: 71.8% and 71% and 72.23%; fluorescence reading (ACE Inhibitor Assay) [19]: 167517 and 173807 and 184836 and 169891; inhibition at 200 µM [19]: 83.2%; % inhibition (ACE Inhibitor Assay) [20]: 82.59% and 81.45% and 82.99%
GAALSPLPEVPP [Peptide S544],29 µM,841511 and 894833 and 882762 and 936430,9.4% and 3.63% and 4.93% and −0.88%,853374 and 881105 and 872351 and 929364,8.12% and 5.11% and 6.06% and −0.11%,864708 and 811879 and 787983 and 930998,6.89% and 12.61% and 15.2% and −0.29%,822128 and 840019 and 799408 and 883161,11.5% and 9.56% and 13.96% and 4.89%,670407 and 719205 and 725919 and 735049,27.9%,22.66% and 21.93% and 20.94%,668628 and 658367 and 643614 and 684354,28.1%,29.25% and 30.85% and 26.43%,494831 and 495043 and 522915 and 521311,47%,46.95% and 43.93% and 44.1%,263679 and 261020 and 262784 and 286592,72%,% inhibition (ACE Inhibitor Assay) [16]: 72.3% and 72.12% and 69.54%; fluorescence reading (ACE Inhibitor Assay) [17]: 154967 and 152193 and 156501 and 158918; inhibition at 100 µM [17]: 83.8%; % inhibition (ACE Inhibitor Assay) [18]: 84.1% and 83.63% and 83.37%; fluorescence reading (ACE Inhibitor Assay) [19]: 92239 and 93028 and 95574 and 94363; inhibition at 200 µM [19]: 90.6%; % inhibition (ACE Inhibitor Assay) [20]: 90.51% and 90.23% and 90.34%
